Converted amounts (≈) assume the structure as drawn. “Also recorded” adds a separate entry of the source.
Tests used:
[1] = system: E. coli (ATCC 25922) transformed with pMM plasmid bearing APH(3')IIa; test: MIC, kanamycin/neomycin resistant E. coli; assay type: cell-based; settings: growth inhibition greater than 90%
Description: (§1) E. coli (ATCC 25922) and P. aeruginosa (ATCC 27853) (BD Bioscience) were inoculated in 3 mL of the medium 2 (U.S. Pharmacopia), containing 6 g peptone, 3 g yeast extract and 1.5 g beef extract per 1 L, pH 6.6, and were grown in a shaker for 6 h at 37° C. until an OD 560=0.6-0.8 was reached.
(§2) Minimal inhibitory concentrations (MIC) were measured according to the published method (Greenberg, W. A., Priestley, E. S., Sears, P. S., Alper, P. B., Rosenbohm, C., Hendrix, M., Hung, S.-C., & Wong, C.-H. (1999) J. Am. Chem. Soc. 121, 6527-6541). E. coli (ATCC 25922) (both wild type and pMM-transformed) and P. aeruginosa (ATCC 27853) were grown in medium 2 to an optical density OD 600 of 0.6-0.8. The inoculi were diluted to OD 600 ˜0.1 in medium 2 and 1 mL of the culture was placed in 13 mL test tubes. The desired concentrations of antibiotic were added from stock solutions. […] The absorbance at 600 nm of each sample was read and MIC was taken as the lowest antibiotic concentration inhibiting bacterial growth by greater than 90%.

70S ribosome = test: Fluorescence anisotropy binding to 70S ribosomes; settings: competition with CRP, E. coli ribosomes; read-out: Dissociation constant (KD) with 70S ribosome
Description: (§3) After establishing the lack of stereospecificity in the binding of aminoglycosides to the A-site RNA constructs (FIG. 9A-C) where the binding affinity, KD, is about 0.1 μM to about 100 μM, the stereospecificity of aminoglycoside binding to intact ribosomes was determined. Both yeast and E. coli ribosomes were prepared and aminoglycoside binding was measured using fluorescence anisotropy methods. For example, fluorescence anisotropy methods recited in Wang, Y., and Rando, R. R. Chem. Biol. (1995) 2, 281-290; and Wang, Y., Hamasaki, K., and Rando, R. R. Biochemistry (1997) 36,768-779. CRP was used as the binding probe. […] Binding data reported herein for aminoglycoside compounds with eukaryotic yeast ribosomes are similar to binding data for said aminoglycoside compounds with ribosoimes in bacteria and with eukaryotic A-site rRNA constructs.
(§4) 5-Carboxytetramethylrhodamine-labeled paromomycin (CRP) and tobramycin (CRT) concentrations were determined spectroscopically at 550 nm using a molar extinction coefficient of 6.00×10 4 M −1 cm −1. Fluorescence anisotropy measurements were performed on a Perkin-Elmer LS-50B luminescence spectrometer equipped with a thermostat accurate to ±0.1° C. as indicated previously (Wang, Y., Hamasaki, K., & Rando, R. R. (1997) Biochemistry 36, 768-779). The tracer solution was excited at 550 nm and monitored at 580 nm. The integration time was 5 s. For every point, 6 measurements were taken, and their average values were used for calculation. Measurements were carried out in a buffer solution containing 150 mM NaCl, 5 mM KCl, 1 mM CaCl2, 1 mM MgCl2, and 20 mM HEPES (pH 7.5). Prior to measurements, RNA constructs were renatured by incubating in binding buffer {150 mM NaCl, 5 mM KCl, 1 mM CaCl2, 1 mM MgCl2, and 20 mM HEPES (pH 7.5)} for 3 minutes at 90° C. followed by slow cooling to 25° C.
(§5) Equation 1 was used for the determination of the dissociation constant (Kd) for the interactions between RNA or ribosome and CRP. A=A0+DA{(RNA)0+(CRP)0+Kd−({(RNA)0+(CRP)0+Kd}^2−4(RNA)0(CRP)0)½}/2 where A and A0 are the fluorescence anisotropy of CRP in the presence and absence of RNA, respectively, and DA is the difference between the fluorescence anisotropy of CRP in the presence of an extrapolated infinite concentration of RNA minus the fluorescence anisotropy in the absence of RNA. (RNA)0 and (CRP)0 are the initial concentrations of RNA and CRP, respectively.
(§6) Equation 2 is used for the calculation of the KD values in the competition binding assay. (aminoglycoside)0={KD(A−−A)/Kd(A−A0)+1}{(RNA)0−Kd(A−A0)/(A−−A)−(CRP)0(A−A0)/(A−−A)} where KD is the dissociation constant between the RNA and the aminoglycosides; (aminoglycoside)0 is the initial concentration of the aminoglycosides; AL is anisotropy of completely bound tracer. Both Kd and KD were determined by non-linear curve fitting using the equations described above, and are presented as mean values of three independent measurements.
The purification of E. coli (E600) 70S ribosomes was carried out according to the published procedure (Lazaro, E., van den Broek, L. A. G. M., Felix, A. S., Ottenheijm, H. C. J., Ballesta, J. P. G. (1991) Biochemistry 30, 9642-9648). E. coli MRE600 were grown for 12 h in 6L of LB medium (10 g trypton, 5 g yeast extract, 5 g NaCl per 1 L, pH 7.0) at 37° C. Crude ribosomes were precipitated from clarified supernatant by 4 h centrifugation at 25,000 rpm in Beckman SW 28 rotor at 4° C. The ribosome pellets were collected in 5 mL of buffer BR1, containing 10 mM HEPES, pH 7.5, 500 mM ammonium acetate, 100 mM magnesium chloride and 2.5 mM DTT. The ribosome suspension was centrifuged for 20 min at 15000 rpm to be clarified. The clarified sample was loaded over two layers of 20% and 40% sucrose in buffer BR1 and centrifuged for 18 hr at 19000 rpm in Beckman SW28 rotor at 4° C. […]

E. coli (ATCC 25922) [2] = test: MIC, wild type E. coli; assay type: cell-based; settings: growth inhibition greater than 90%
Description: as §2

[3] = system: P. aeruginosa (ATCC 27853); test: MIC, P. aeruginosa; assay type: cell-based; settings: growth inhibition greater than 90%
Description: as §2

[4] = system: E. coli (ATCC 25922) transformed with the plasmid pMM, bearing the APH(3')IIa gene; test: Antibiotic activity disk assay, kanamycin/neomycin resistant E. coli; assay type: cell-based; settings: FIG. 7B
Description: as §1
For the antibiotic disk assay, […] of each bacterial inoculum was mixed with 10 mL of melted agar (1.5% medium 2 agar, BD Bioscience) at 50-55° C. and poured onto 100 mm Petri dishes. Sterile Whatmann 3 MM 5 mm paper disks were soaked with antibiotic solutions and allowed to dry. The disks were positioned evenly on the surface of bacterial-inoculated solid agar and the plates were incubated at 37° C. for 1-2 days. MIC and bactericide index measurements.

80S ribosome = test: Fluorescence anisotropy binding to 80S ribosomes; set-up: species or system yeast (S. cerevisiae); settings: competition with CRP, yeast ribosomes; read-out: Dissociation constant (KD) with 80S ribosome
Description: as §3, §4, §5, §6
The purification of yeast 80S ribosomes from S. cerevisiae strain YSB 758 was carried out according to the published procedure (Verschoor, A., Warner, J. R., Srivastava, S., Grassucci, R. A., & Frank, J. (1997) Nucl. Acid Res. 26, 655-661). S. cerevisiea YSB 758 were grown for 12 hrs at 30° C. in 2L of YPD medium, containing: 20 g bacto peptone, 20 g glucose, 10 g yeast extract and 0.15 g tryptophan per 1 L, pH 7.0. The cells were lysed by 5-10 cycles of 1 min vigorous shaking with glass beads with a vortex, followed by cooling on ice. Clarified cell extract (about 9 mL total, used in 6 portions in 1.5 mL aliqouts) was carefully loaded on top of 2 mL of a cushion, composed of 10% sucrose and 5% ammonium sulfate dissolved in buffer YR1 (20 mM HEPES pH=7.4, 16 mM magnesium chloride, 100 mM potassium chloride, 5 mM DTT, and 0.5 mM EDTA). The ribosomes were collected by centrifugation in Beckman TL100.3 rotor at 75000 rpm for 3 h. The supernatants were carefully discarded and ribosomes were collected in buffer YR1. […]

E. coli (ATCC 25922) [5] = test: Bactericidal activity (bactericide index); assay type: cell-based; settings: 3 h incubation, FIG. 8
Description: The bactericidal activity of each antibiotic was investigated at concentrations of 0.5-4×MIC in medium E. coli (ATCC 25922) inoculum was added to 0.5 mL medium 2 to OD 600 ˜0.1 together with different antibiotic concentrations. The samples were incubated at 37° C. for 3 hrs, and the bacteria were collected by centrifugation. The bacterial pellets were washed with 0.5 mL of medium 2 and were plated on 1.5% medium 2 agar in 100 mm Petri dishes. The plates were incubated for 1-2 days at 37° C. and mean log 10 change in viable count was calculated and plotted vs drug concentration.

[6] = system: E. coli S30 extract, containing 70S ribosomes; test: In vitro protein translation (CAT mRNA, 35S methionine incorporation); assay type: biochemical; settings: quantitation of gel bands, read-out: IC50, concentration producing 50% inhibition of translation
Description: Protein translation was performed from chloramphenicol acetyl transferase (CAT) mRNA. […] A commercial E. coli ribosomal suspension was supplemented with an E. coli extract containing the required elements for translation. These include translation factors, tRNAs, and aminoacyl tRNA synthases. Plasmid, T7 RNA polymerase and amino acids were added to the reaction mixture, and both transcription and translation steps were performed in the same vial. The effects of the aminoglycosides on the translation process were evaluated by measuring the incorporation of ^35S methionine in the translated chloramphenicol acetyl transferase protein.
In vitro translation was performed by using PROTEINscript™-PRO (Ambion) kit. […] Reaction mixtures contained appropriate concentrations of antibiotic (neomycin B, D- and L-neamine). The protein was translated from CAT mRNA, transcribed from control DNA template containing CAT gene under control of the T7 promotor. The product, ˜25 kDa chloramphenicol acetyl transferase, was labeled during translation with 1 μCi ^35S methionine (New England Nuclear) per reaction (no cold methionine was added).
Following the translation, the samples were analyzed by electrophoresis on 4-20% SDS mini-gels (Invitrogen) for 1.5 h at 120V. Gels were fixed with 40% methanol/10% acetic acid and exposed to Molecular Dynamics phosphoimager plates, which were read on a Personal FX phosphoimager (Bio-Rad) and quantitated using QuantityOne™ software.

Structure (SMILES): NCC1OC(OC2C(N)CC(N)C(O)C2O)C(N)C(O)C1O [D-Neamine]
- Minimal inhibitory concentration (MIC), E. coli kan/neo resistant [1]: >6400 µM
- Kd (70S ribosome): 5.45 ± 0.68 µM
- Minimal inhibitory concentration (MIC), E. coli (E. coli (ATCC 25922) [2]): 150 µM (≈ 48.4 µg/mL)
- Minimal inhibitory concentration (MIC), P. aeruginosa [3]: 500 µM (≈ 161 µg/mL)
- Antibiotic activity in disk assay, kanamycin/neomycin resistant E. coli [4]: selective resistance towards D-neamine; also recorded: essentially abolished
- Kd (80S ribosome): 1.14 ± 0.25 µM
- Concentration at which bactericidal effect begins (E. coli (ATCC 25922) [5]): 75 µM
- IC50 [6]: 38 µM

Source: patent US7244712B2, “Aminoglycoside antibiotics and methods of using same” (priority 2004, dated 2007)
